# Reference: US12065426B2, “Crystalline form of nilotinib hydrochloride, process for its preparation and pharmaceutical composition containing the same” (Laurus Labs Limited, priority 2018, dated 2024)
# Like-named read-outs stand apart in the source and are kept apart here.
# Key:
# [1] = from table 22 of U.S. Pat. No. 8,415,363, cited from earlier work
# [2] = Thermogravimetric analysis (TGA) / loss on drying; format: physicochemical; conditions: for Thermogravimetric (weight loss %): 10° C./minute, RT to 80° C.
# Description: Thermogravimetry analysis (TGA) data in the present invention was acquired using TA instruments TGA Q500 thermogravimetric analyser with universal Analysis 2000 software using the following conditions; Heating rate: 10° C./min; Temperature range: 28±2° C.-250° C.; Nitrogen flow: 60 mL/minute.
# [3] = Saturation solubility studies in various mediums; conditions: for solubility: 25 °C, thermodynamic from solid
# Description: Saturation solubility studies were conducted in various mediums for nilotinib hydrochloride Form L of the present invention and nilotinib hydrochloride monohydrate Form B (U.S. Pat. No. 8,415,363).
# [4] = Dynamic vapour sorption (DVS); format: physicochemical
# Description: Dynamic vapour sorption (DVS) data in the present invention was acquired using TA instruments TA Q5000SA Dynamic vapour sorption analyser with Universal Analysis 2000 software under following parameters; Sample was initially equilibrated at 0% RT for 120 mins; humidity range: 10 to 90%; humidity step size: 10%; Equilibration condition: change in mass less than 0.01% within 5 mins.
# [5] = Variable temperature powder X-ray diffraction (VT-PXRD); format: physicochemical; conditions: 25-300° C., heating rate 10° C./mins
# [6] = Chemical and polymorphic stability study at different storage conditions (HPLC, XRD); format: physicochemical; design: key to 5-Methyl isomer (Imp-4) / 4-Ethyl analogue (Imp-5) / Any unspecified impurity / Total Impurities / Methyl ester impurity (Imp-2) / Acid impurity (Imp-1): ND: Not detected; BDRL: Below disregard limit
# Description: Nilotinib hydrochloride Form L is packed in a transparent Low density polyethylene (LDPE) bag with a strip seal along with nitrogen filling, which is again kept in a second transparent low density polyethylene bag with strip seal. The LDPE bag is kept in to a triple laminated sunlight barrier with heat seal followed by in a high density polyethylene container and well closed.
# Alternatively, Nilotinib hydrochloride Form L is packed in a HM LDPE bag in nitrogen atmosphere, fill the bag with nitrogen and seal it with vacuum sealer. Place this bag in another HM LDPE bag, fill with nitrogen, keep one silica gel packet between two bags and seal the bag with vacuum sealer. Place this in a triple laminated sunlight barrier bag, seal the bag with vacuum sealer; and finally kept it in a HDPE container.
# The Nilotinib hydrochloride Form L was analysed using High Performance Liquid Chromatography (“HPLC”) with the conditions as tabulated below: […]
smiles,measurement,setting,value
"Cc1cn(-c2cc(NC(=O)c3ccc(C)c(Nc4nccc(-c5cccnc5)n4)c3)cc(C(F)(F)F)c2)cn1.Cl.O [Form B, reference compound]",Loss on drying,[1]; 30° C.-100° C.,1.00%
same,Loss on drying,[1]; 100° C.-220° C.,3.02%
same,Thermogravimetric (weight loss %),[2],0.91 (RT to 80° C.) %
same,Saturation solubility,"[3]; 0.01N HCl, approximately at 25° C.",80 µg/mL
same,Saturation solubility,"[3]; 0.1N HCl, approximately at 25° C.",940 µg/mL
same,Saturation solubility,"[3]; Ethanol, approximately at 25° C.",3690 µg/mL
same,Saturation solubility,"[3]; Isopropanol, approximately at 25° C.",1930 µg/mL
same,Saturation solubility,"[3]; Phosphate buffer, pH 6.8, approximately at 25° C.",Below detection
same,Saturation solubility,"[3]; Water, approximately at 25° C.",170 µg/mL
"Cc1cn(-c2cc(NC(=O)c3ccc(C)c(Nc4nccc(-c5cccnc5)n4)c3)cc(C(F)(F)F)c2)cn1.Cl [Form L, 4-methyl-N-[3-(4-methyl-1H-imidazol-1-yl)-5-(trifluoromethyl)phenyl]-3-[[4-(3-pyridinyl)-2-pyrimidinyl]amino]-benzamide hydrochloride]",% Weight change,"[4]; Adsorption, 10 % RH",0.5405%
same,% Weight change,"[4]; Adsorption, 20 % RH",0.7918%
same,% Weight change,"[4]; Adsorption, 30 % RH",0.9954%
same,% Weight change,"[4]; Adsorption, 40 % RH",1.170%
same,% Weight change,"[4]; Adsorption, 50 % RH",1.350%
same,% Weight change,"[4]; Adsorption, 60 % RH",1.544%
same,% Weight change,"[4]; Adsorption, 70 % RH",1.904%
same,% Weight change,"[4]; Adsorption, 80 % RH",2.661%
same,% Weight change,"[4]; Adsorption, 90 % RH",5.414%
same,% Weight change,"[4]; Desorption, 10 % RH",1.303%
same,% Weight change,"[4]; Desorption, 20 % RH",1.751%
same,% Weight change,"[4]; Desorption, 30 % RH",2.098%
same,% Weight change,"[4]; Desorption, 40 % RH",2.855%
same,% Weight change,"[4]; Desorption, 50 % RH",4.190%
same,% Weight change,"[4]; Desorption, 60 % RH",4.453%
same,% Weight change,"[4]; Desorption, 70 % RH",4.875%
same,% Weight change,"[4]; Desorption, 80 % RH",5.134%
same,% Weight change,"[4]; Desorption, 90 % RH",5.414%
same,Water pick up,[4]; at 80% RH at RT,about 2.7%
same,Maximum absorption of water,[4]; at 90% RH,about 5.4%
same,Difference in water content between absorption and desorption,[4]; between 50% and 60% RH at room temperature,about 3%
same,Hygroscopicity,[4]; from water pick up at 80% RH at RT,moderately hygroscopic
same,Thermogravimetric (weight loss %),[2],1.6 (RT to 80°) %
same,Loss on drying,[2]; 30° C.-100° C.,2.3%
same,Loss on drying,[2]; 100° C.-220° C.,7.3%
same,Temperature up to which characteristic PXRD is retained,[5],about 140 °C
same,4-Ethyl analogue (Imp-5),"[6]; 25 ± 2° C./60 ± 5% RH, 2 month",BDRL
same,5-Methyl isomer (Imp-4),"[6]; 25 ± 2° C./60 ± 5% RH, 2 month",BDRL
same,Any unspecified impurity,"[6]; 25 ± 2° C./60 ± 5% RH, 2 month",BDRL
same,Description,"[6]; 25 ± 2° C./60 ± 5% RH, 2 month",Slightly yellow
same,Solid form by XRD,"[6]; 25 ± 2° C./60 ± 5% RH, 2 month",Complies
same,Total Impurities,"[6]; 25 ± 2° C./60 ± 5% RH, 2 month",BDRL
same,4-Ethyl analogue (Imp-5),"[6]; 25 ± 2° C./60 ± 5% RH, Initial",BDRL
same,Any unspecified impurity,"[6]; 25 ± 2° C./60 ± 5% RH, Initial",BDRL
same,Description,"[6]; 25 ± 2° C./60 ± 5% RH, Initial",Slightly yellow
same,Solid form by XRD,"[6]; 25 ± 2° C./60 ± 5% RH, Initial",Complies
same,Total Impurities,"[6]; 25 ± 2° C./60 ± 5% RH, Initial",BDRL
same,4-Ethyl analogue (Imp-5),"[6]; 40 ± 2° C./75 ± 5% RH, 1 month",BDRL
same,5-Methyl isomer (Imp-4),"[6]; 40 ± 2° C./75 ± 5% RH, 1 month",BDRL
same,Acid impurity (Imp-1),"[6]; 40 ± 2° C./75 ± 5% RH, 1 month",BDRL
same,Any unspecified impurity,"[6]; 40 ± 2° C./75 ± 5% RH, 1 month",BDRL
same,Description,"[6]; 40 ± 2° C./75 ± 5% RH, 1 month",Slightly yellow
same,Methyl ester impurity (Imp-2),"[6]; 40 ± 2° C./75 ± 5% RH, 1 month",BDRL
same,Solid form by XRD,"[6]; 40 ± 2° C./75 ± 5% RH, 1 month",Complies
same,Total Impurities,"[6]; 40 ± 2° C./75 ± 5% RH, 1 month",BDRL
same,4-Ethyl analogue (Imp-5),"[6]; 40 ± 2° C./75 ± 5% RH, 2 month",BDRL
same,5-Methyl isomer (Imp-4),"[6]; 40 ± 2° C./75 ± 5% RH, 2 month",BDRL
same,Any unspecified impurity,"[6]; 40 ± 2° C./75 ± 5% RH, 2 month",BDRL
same,Description,"[6]; 40 ± 2° C./75 ± 5% RH, 2 month",Slightly yellow
same,Solid form by XRD,"[6]; 40 ± 2° C./75 ± 5% RH, 2 month",Complies
same,Total Impurities,"[6]; 40 ± 2° C./75 ± 5% RH, 2 month",BDRL
same,4-Ethyl analogue (Imp-5),"[6]; 40 ± 2° C./75 ± 5% RH, Initial",BDRL
same,Any unspecified impurity,"[6]; 40 ± 2° C./75 ± 5% RH, Initial",BDRL
same,Description,"[6]; 40 ± 2° C./75 ± 5% RH, Initial",Slightly yellow
same,Solid form by XRD,"[6]; 40 ± 2° C./75 ± 5% RH, Initial",Complies
same,Total Impurities,"[6]; 40 ± 2° C./75 ± 5% RH, Initial",BDRL
same,Polymorphic and chemical identity on storage,"[6]; different storage conditions, at least up to two months",retained the same polymorphic and chemical identity
same,solubility,"[3]; 0.01N HCl, simulated gastric fluid",170 µg/mL
same,solubility,"[3]; 0.1N HCl, simulated gastric fluid",1860 µg/mL
same,solubility,"[3]; ethanol, organic solvent or mixture",16300 µg/mL
same,solubility,"[3]; isopropanol, organic solvent or mixture",2740 µg/mL
same,solubility,"[3]; phosphate buffer, pH 6.8, aqueous buffer",20 µg/mL
same,Solubility compared to Form B,[3]; various mediums,better solubility
same,solubility,[3]; water,160 µg/mL
